Assay results published in the NIST ThermoML archive (doi:10.1021/je301347v).

Assay: xn = mol fraction of the nth substance listed
Settings: 101 kPa, Liquid, Voltage change across transformer (no electrode)

CCCC[n+]1ccccc1.F[B-](F)(F)F [1-butylpyridinium tetrafluoroborate] + CCO
electrical conductivity [S/m]
Settings | 303.15 K | 313.15 K | 323.15 K
x1 = 0.0353 | 0.785 | 1.02 | 1.32
x1 = 0.0417 | 0.863 | 1.18 | 1.38
x1 = 0.0455 | 1.06 | 1.27 | 1.54
x1 = 0.0461 | 1.04 | 1.29 | 1.54
x1 = 0.0551 | 1.15 | 1.48 | 1.72
x1 = 0.0564 | 1.24 | 1.5 | 1.83
x1 = 0.0634 | 1.44 | 1.64 | 2.22
x1 = 0.0735 | 1.43 | 1.82 | 2.12
x1 = 0.084 | 1.56 | 1.98 | 2.31
x1 = 0.1033 | 1.68 | 2.24 | 2.56
x1 = 0.1165 | 1.8 | 2.39 | 2.7
x1 = 0.1291 | 1.86 | 2.51 | 2.92
x1 = 0.1597 | 2.16 | 2.74 | 3.01
x1 = 0.1656 | 2.28 | 2.77 | 3.23
x1 = 0.2093 | 2.38 | 2.95 | 3.41
x1 = 0.2237 | 2.44 | 2.96 | 3.43
x1 = 0.2751 | 2.46 | 2.97 | 3.45
x1 = 0.3929 | 2.17 | 2.7 | 3.2
x1 = 0.4464 | 1.96 | 2.5 | 2.86
x1 = 0.5095 | 1.66 | 2.2 | 2.56
x1 = 0.617 | 1.2 | 1.77 | 2.17
x1 = 0.7008 | 0.884 | 1.43 | 1.71
x1 = 0.8158 | 0.566 | 1.03 | 1.28
x1 = 0.8973 | 0.436 | 0.821 | 1.04
x1 = 1 | 0.321 | 0.519 | 0.785

CCCC[n+]1cccc(C)c1.F[B-](F)(F)F [1-butyl-3-methylpyridinium tetrafluoroborate] + CO
electrical conductivity [S/m]
Settings | 293.15 K | 303.15 K | 313.15 K | 323.15 K
x1 = 0.0337 | 2.29 | 2.71 | 3.11 | 3.5
x1 = 0.0438 | 2.45 | 2.89 | 3.34 | 3.8
x1 = 0.0479 | 2.66 | 3.12 | 3.6 | 4.09
x1 = 0.0567 | 2.9 | 3.41 | 3.96 | 4.53
x1 = 0.0699 | 3.17 | 3.85 | 4.49 | 5.1
x1 = 0.1142 | 3.33 | 3.98 | 4.66 | 5.38
x1 = 0.1504 | 3.37 | 4.06 | 4.74 | 5.5
x1 = 0.1734 | 3.31 | 4.01 | 4.74 | 5.52
x1 = 0.2236 | 3.11 | 3.8 | 4.55 | 5.34
x1 = 0.2696 | 2.78 | 3.44 | 4.15 | 4.89
x1 = 0.3345 | 2.43 | 3.08 | 3.77 | 4.49
x1 = 0.378 | 2.19 | 2.8 | 3.45 | 4.11
x1 = 0.4258 | 1.76 | 2.31 | 2.95 | 3.59
x1 = 0.5198 | 1.3 | 1.82 | 2.3 | 2.87
x1 = 0.61 | 0.944 | 1.32 | 1.78 | 2.27
x1 = 0.729 | 0.472 | 0.686 | 1.04 | 1.58
x1 = 0.8344 | 0.28 | 0.413 | 0.672 | 1.05
x1 = 0.9177 | 0.191 | 0.311 | 0.523 | 0.817
x1 = 1 | 0.155 | 0.281 | 0.461 | 0.704

CCCC[n+]1ccc(C)cc1.F[B-](F)(F)F [1-butyl-4-methylpyridinium tetrafluoroborate] + CCO
electrical conductivity [S/m]
Settings | 293.15 K | 303.15 K | 313.15 K | 323.15 K
x1 = 0.0448 | 0.696 | 0.877 | 1.01 | 1.1
x1 = 0.0521 | 0.791 | 1.01 | 1.22 | 1.3
x1 = 0.0608 | 0.893 | 1.15 | 1.42 | 1.55
x1 = 0.0701 | 0.991 | 1.28 | 1.58 | 1.76
x1 = 0.0843 | 1.15 | 1.47 | 1.82 | 1.95
x1 = 0.1046 | 1.29 | 1.65 | 2.08 | 2.41
x1 = 0.1232 | 1.39 | 1.8 | 2.26 | 2.64
x1 = 0.1347 | 1.44 | 1.86 | 2.33 | 2.76
x1 = 0.1551 | 1.5 | 1.95 | 2.47 | 2.92
x1 = 0.1602 | 1.51 | 1.97 | 2.49 | 2.96
x1 = 0.2251 | 1.59 | 2.09 | 2.67 | 3.22
x1 = 0.247 | 1.59 | 2.09 | 2.68 | 3.26
x1 = 0.3371 | 1.52 | 2.02 | 2.61 | 3.22
x1 = 0.3512 | 1.5 | 2 | 2.59 | 3.22
x1 = 0.3799 | 1.45 | 1.95 | 2.52 | 3.17
x1 = 0.3856 | 1.44 | 1.94 | 2.52 | 3.16
x1 = 0.4126 | 1.4 | 1.88 | 2.46 | 3.1
x1 = 0.5649 | 1.1 | 1.37 | 2.01 | 2.63
x1 = 0.6798 | 0.851 | 1.02 | 1.61 | 2.16
x1 = 0.7941 | 0.601 | 0.696 | 1.2 | 1.68
x1 = 0.9258 | 0.305 | 0.38 | 0.717 | 1.06
x1 = 0.9963 | 0.154 | 0.242 | 0.459 | 0.74
x1 = 1 | 0.132 | 0.254 | 0.439 | 0.687
